Where only a bound is given, the exact number is not on record here.

One experiment concerns the target Coagulation factor X (Homo sapiens, UniProt P00742). As to the kind of experiment: Inhibition of human factor 10a using CH3OCO-D-Cha-Gly-Arg-pNA as substrate.
Experiment [1] has as its target Urokinase-type plasminogen activator (Homo sapiens, UniProt P00749). The experiment can be described thus: Inhibition of human uPA using Bzbeta-Ala-Gly-Arg-pNA as substrate.
A further experiment has as its target Prothrombin (Bos taurus, UniProt P00735). As to the kind of experiment: Inhibition of bovine thrombin using MeSO2-D-Cha-Gly-Arg-pNA as substrate.
Experiment [2] has as its target T1, Transmembrane protease serine 6 (Homo sapiens, UniProt Q8IU80).
T1 sequence (Q8IU80 whole entry): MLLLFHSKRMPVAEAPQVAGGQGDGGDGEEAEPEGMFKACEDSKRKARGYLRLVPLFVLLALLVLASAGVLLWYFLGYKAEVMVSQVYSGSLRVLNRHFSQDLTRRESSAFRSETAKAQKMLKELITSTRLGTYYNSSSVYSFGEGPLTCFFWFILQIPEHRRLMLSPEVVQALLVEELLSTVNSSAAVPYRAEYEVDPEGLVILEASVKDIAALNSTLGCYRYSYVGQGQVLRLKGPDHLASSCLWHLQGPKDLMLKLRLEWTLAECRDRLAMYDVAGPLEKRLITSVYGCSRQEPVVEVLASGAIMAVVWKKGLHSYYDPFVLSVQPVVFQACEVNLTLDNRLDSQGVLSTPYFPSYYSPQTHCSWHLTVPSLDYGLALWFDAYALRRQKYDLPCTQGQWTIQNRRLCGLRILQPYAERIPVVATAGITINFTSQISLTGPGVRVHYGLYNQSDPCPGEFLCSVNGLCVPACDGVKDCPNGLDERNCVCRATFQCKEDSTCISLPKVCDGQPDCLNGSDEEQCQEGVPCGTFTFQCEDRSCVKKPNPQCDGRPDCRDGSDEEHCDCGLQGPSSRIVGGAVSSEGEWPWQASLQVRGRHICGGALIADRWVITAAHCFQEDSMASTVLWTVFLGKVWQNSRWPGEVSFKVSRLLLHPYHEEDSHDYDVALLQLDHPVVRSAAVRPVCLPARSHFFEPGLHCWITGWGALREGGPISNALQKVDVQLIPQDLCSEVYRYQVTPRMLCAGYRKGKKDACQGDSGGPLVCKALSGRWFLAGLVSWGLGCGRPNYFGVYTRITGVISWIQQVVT
As to the kind of experiment: Inhibition of matriptase-2 (unknown origin) expressed in HEK293 cells using ln-Ala-Arg-a-Arg-para-nitroanilide as substrate by UV-vis spectrophotometry. It is filed as cell-based.

A short description of experiment [3]: Inhibition of recombinant human airway trypsin-like protease by fluorescence assay.
In experiment [4] the target is T2, Suppressor of tumorigenicity 14 protein (Homo sapiens, UniProt Q9Y5Y6).
T2 sequence (Q9Y5Y6 whole entry): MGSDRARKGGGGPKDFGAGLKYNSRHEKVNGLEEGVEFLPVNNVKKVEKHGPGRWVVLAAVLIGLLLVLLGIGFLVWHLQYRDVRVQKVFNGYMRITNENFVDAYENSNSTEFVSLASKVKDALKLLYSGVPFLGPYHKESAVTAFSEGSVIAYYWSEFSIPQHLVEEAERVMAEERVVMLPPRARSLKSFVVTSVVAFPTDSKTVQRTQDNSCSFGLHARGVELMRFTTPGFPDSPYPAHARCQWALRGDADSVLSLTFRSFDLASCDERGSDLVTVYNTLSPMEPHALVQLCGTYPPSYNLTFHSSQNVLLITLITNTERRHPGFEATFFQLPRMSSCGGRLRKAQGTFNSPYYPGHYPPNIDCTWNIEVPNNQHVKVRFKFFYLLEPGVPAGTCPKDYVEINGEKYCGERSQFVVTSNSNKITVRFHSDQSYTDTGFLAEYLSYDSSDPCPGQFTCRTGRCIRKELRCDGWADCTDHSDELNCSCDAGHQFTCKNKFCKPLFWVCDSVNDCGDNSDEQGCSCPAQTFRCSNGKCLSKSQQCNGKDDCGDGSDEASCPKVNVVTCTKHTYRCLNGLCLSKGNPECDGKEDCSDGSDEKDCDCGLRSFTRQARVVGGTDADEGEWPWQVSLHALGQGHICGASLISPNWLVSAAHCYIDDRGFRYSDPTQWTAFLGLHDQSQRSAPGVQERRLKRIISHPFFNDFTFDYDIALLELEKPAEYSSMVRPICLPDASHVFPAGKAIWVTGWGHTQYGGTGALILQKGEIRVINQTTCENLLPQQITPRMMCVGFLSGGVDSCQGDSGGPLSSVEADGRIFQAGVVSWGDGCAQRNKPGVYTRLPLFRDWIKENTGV
The experiment can be described thus: Inhibition of matriptase (unknown origin) using MeSO2-D-Cha-Gly-Arg-pNA as substrate.

Experiment [5] is described as follows: Selectivity ratio of Ki for bovine thrombin to Ki for matriptase (unknown origin).
The subject of the next experiment is HEK293. As to the kind of experiment: Selectivity ratio of Ki for matriptase-2 (unknown origin) expressed in HEK293 cells to Ki for matriptase (unknown origin). It counts as cell-based. Conditions: Homo sapiens.
For experiment [6], the species on record is Homo sapiens. The experiment can be described thus: Selectivity ratio of Ki for human uPA to Ki for matriptase (unknown origin).
The species entered for experiment [7] is Homo sapiens. As to the kind of experiment: Selectivity ratio of Ki for recombinant human airway trypsin-like protease to Ki for matriptase (unknown origin).

Chain of Coagulation factor X (P00742 41-179 limits assumed): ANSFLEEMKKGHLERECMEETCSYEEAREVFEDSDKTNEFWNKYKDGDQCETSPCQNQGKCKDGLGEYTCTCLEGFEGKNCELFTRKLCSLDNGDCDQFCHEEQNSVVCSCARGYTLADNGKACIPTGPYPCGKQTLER
Chain of Coagulation factor X (P00742 235-488 limits assumed): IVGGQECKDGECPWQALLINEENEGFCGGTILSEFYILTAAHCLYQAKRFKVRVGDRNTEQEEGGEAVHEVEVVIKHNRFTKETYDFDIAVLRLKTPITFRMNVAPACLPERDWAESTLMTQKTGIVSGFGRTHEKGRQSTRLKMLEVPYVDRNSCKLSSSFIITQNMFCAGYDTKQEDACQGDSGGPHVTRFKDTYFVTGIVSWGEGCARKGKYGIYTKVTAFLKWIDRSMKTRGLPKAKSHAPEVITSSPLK

In general, Ki refers to a measure of affinity in units of concentration, obtained from inhibition or displacement. `CNC(=O)NCCC1CCN(C(=O)[C@H](Cc2cccc(C(=N)N)c2)NS(=O)(=O)c2cccc(-c3ccc(OC)cc3OC)c2)CC1`: the Ki at Coagulation factor X was 51 nM; in experiment [1] it was 4400 nM; at Prothrombin it was 0.8 nM; in experiment [2] it was 180 nM; in experiment [3], 110 nM; in experiment [4], 1.8 nM.
`COc1ccc(-c2cccc(S(=O)(=O)N[C@@H](Cc3cccc(C(=N)N)c3)C(=O)N3CCC(NC(=O)NC4CCCCC4)CC3)c2)c(OC)c1`: the Ki on Coagulation factor X was determined as 11 nM; in experiment [1], 18500 nM; on Prothrombin, 1230 nM; in experiment [2] it was 1420 nM; in [3], 830 nM; in experiment [4], 2.7 nM. Moreover, in [5], the Ratio Ki is over 500.
As for `COc1ccc(-c2cccc(S(=O)(=O)N[C@@H](Cc3cccc(C(=N)N)c3)C(=O)N3CCC(CCN)CC3)c2)c(OC)c1`, the Ki at Coagulation factor X was determined as 110 nM; on Prothrombin, 30 nM; in experiment [2], 310 nM; in experiment [4], 1 nM. Besides, the Ratio Ki with HEK293, in the experiment filed under Homo sapiens [6] and in the experiment listed under Homo sapiens [7] was 20 throughout.
In the case of `N=C(N)c1cccc(C[C@H](NS(=O)(=O)c2cccc(-c3ccc(Cl)cc3Cl)c2)C(=O)N2CCC(NC(=O)NC3CCCCC3)CC2)c1`, the Ki on Coagulation factor X is 20 nM; in experiment [1] it was 18100 nM; on Prothrombin it was 630 nM; in experiment [2] it was 940 nM; in experiment [3] it was 2700 nM; in experiment [4], 5.1 nM. For the same compound, the Ratio Ki in experiment [5] is over 500.
Turning to `CNC(=O)NCCC1CCN(C(=O)[C@H](Cc2cccc(C(=N)N)c2)NS(=O)(=O)c2cccc(-c3ccc(Cl)cc3Cl)c2)CC1`, the Ki is 29 nM on Coagulation factor X; 3400 nM in [1]; 0.2 nM on Prothrombin; 73 nM in [2]; 170 nM in experiment [3]; 0.9 nM in experiment [4].

Source of the values: ChEMBL document CHEMBL3217540, “New 3-amidinophenylalanine-derived inhibitors of matriptase” (Medchemcomm, 2012).
